Test results: US5942534A, “Photodynamic therapy for the treatment of osteoarthritis” (The General Hospital Corporation, priority 1997, dated 1999)
Converted amounts (≈) assume the structure as drawn. Where two headings read alike, the source gives them in different places.

Columns and labels:
Format in all cases: cell-based, calf
chondrocytes [1] = experiment: PDT-induced cytotoxicity (MTT cellular viability) in chondrocytes; details: more than 6 μg/ml Ce6; 5 or 10 J/cm^2 light, 658 nm; 72 hours after irradiation
Protocol: (§1) Chondrocytes were harvested by established collagenase digestion techniques. Articular cartilage was aseptically dissected from the femoral condyles and patellas of calf knee joints. […] The resulting cell suspensions were filtered through a cell sieve and washed twice with serum free TCM. The cells were resuspended in the same medium containing 5% heat inactivated fetal calf serum (BioWhittaker, Walkerville, Md.) (FCS-TCM) for seeding. Cell number was determined using a hemocytometer. […] Cells were plated at a density of 1.5×10^6 cells/ml into Falcon 96 well cell culture plates (Becton Dickinson Labware, Franklin Lakes, N.J.) for the cytotoxicity and cell proliferation experiments and into Falcon 6 well cell culture plates for the Photosensitizer uptake studies. Chondrocyte cultures were maintained at 37° C. in a 5% CO2 incubator for 1 week prior to initiation of the photosensitization studies.
(§2) Photofrin® (PF) and Benzoporphyrin Derivative (BPD-MA) were obtained from Quadralogic Technologies (Vancouver, Canada). Chlorin e6 (Ce6) and chloroaluminum phthalocyanine (CASP) were obtained from Ciba Geigy (Basel, Switzerland) and Porphyrin Products (Logan, Utah), respectively. All photosensitizers were added to the chondrocytes in the dark 3 hours prior to light exposure. Photosensitizer stock solutions were prepared immediately prior to each experiment; serial dilutions were prepared using FCS-TCM. All irradiations were done at the appropriate excitation wavelengths for each photosensitizer (BPD-MA 690 nm; Ce6 658 nm; CASP 680 nm; PF 624 nm) using light provided by an argon ion pumped dye laser (Coherent, Palo Alto, Calif.). Following light exposure, control and irradiated cells were maintained for 72 hours prior to the assessment of cellular viability and proliferation rates. Cells were examined daily by light microscopy for morphologic changes.
Screening studies of toxicity determined the range of doses and light response for each photosensitizer. These predetermined ranges were used for all of the studies described. […] Dosages greater than 50 μg/ml were considered not clinically relevant and a dose range extending to 50 μg/ml was chosen for these studies.
PDT-induced cytotoxicity was determined 72 hours after irradiation. […] MTT is metabolized via mitochondrial dehydrogenase enzymes to a formazan dye which can be measured spectrophotometrically. Cytotoxicity is expressed as the percentage of formazan produced in cells treated with visible light of different wavelengths and intensities relative to control cells (% control). The data are expressed as the mean ±S.E.M. from triplicate experiments.

chondrocytes [2] = experiment: Cell proliferation ([^3 H]-thymidine incorporation) after PDT; details: Bos taurus, Chondrocyte
Protocol: as §1, §2
Cell proliferation was determined by [^3 H]-thymidine incorporation for all chondrocyte cultures 72 hours after drug and/or light exposure. The cell cultures were labeled with 5 μCi/ml [^3 H]-thymidine (35 Ci/mmol) (ICN, Irvine, Calif.) in FCS-TCM. After incubation for 20 hours, the radioactive medium was removed and the cells were rinsed three times with phosphate buffered saline (PBS) to remove unincorporated label. The cells were then lysed with buffer containing 150 mM Tris pH 8.0, 200 mM sodium chloride, 10% triton X-100 and 1% SDS. [^3 H]-thymidine incorporation was determined by liquid scintillation methods and the data are expressed as mean % control ±S.E.M. of samples irradiated without photosensitizer addition.
(§3) Articular chondrocytes were maintained in primary culture for five days after plating. Photosensitizer stocks were serially diluted in FCS-TCM and added to triplicate wells. The cells were incubated in the dark for 3 hours. The photosensitizer-containing FCS-TCM was then removed and the cells were rinsed with 1 ml PBS. To digest the extracellular matrix, the cells were then immersed in 1 ml of a solution of 1 mg/ml collagenase and 0.1 mg/ml hyaluronidase in serum-free TCM. The resulting single cell suspensions were transferred to microfuge tubes and were centrifuged at 3.3×g for 5 minutes. The collagenase solution was removed and the cells were rinsed three times with calcium/magnesium-free PBS. Aliquots were taken for cell counting prior to cell lysis with 1 ml 0.1 N NaOH containing 1% SDS. Cell counting was performed by hemocytometer and Coulter counter. Fluorescent spectra of the cell lysates were obtained using a Spex FluoroMax spectrofluorometer (ISA Instruments, Edison, N.J.) at the appropriate excitation/emission wavelengths for each of the four photosensitizers studied. Fluorescence spectra were corrected for background fluorescence. Relative uptake values were obtained by regression analysis of standard curves of known photosensitizer concentrations. […] Values of uptake at the IC50 are shown in fg/cell.

articular chondrocytes = experiment: Photosensitizer uptake studies
Protocol: as §1
as §3, with “fg/cell. Average protein per cell was calculated from the cell counts and protein concentration determined by the Lowry protein assay.” for “fg/cell.”

MMP2 = experiment: Gelatin zymography, MMP2 after PDT
Protocol: as §1, §2
Aliquots of conditioned medium were mixed with 1 ml of acetone and maintained at -20° C. for 16-20 hours. The aliquots were microcentrifuged at 14,000×g for 15 minutes, the supernatant was removed and the precipitated protein was dried in a vacuum concentrator (Savant, Farmingdale, N.Y.) to remove residual acetone. Conditioned medium samples were mixed with sample buffer (0.4 M Tris pH 6.8, 5% SDS, 20% glycerol, 0.003% bromophenol blue) and applied directly, without boiling or reduction, to 10% acrylamide gels containing 1% gelatin. […] The gels were stained for 1 hour at room temperature in 30% methanol/10% acetic acid containing 0.5% coomassie blue R-250 and destained in the same solution without dye. The gelatinolytic activity of the proteins was evidenced by clear bands against the blue background of the stained gelatin.

chondrocytes [3] = experiment: Fluorescence of photosensitizers in chondrocytes (confocal microscopy)

## C=Cc1c(C)c2cc3nc(c(CC(=O)O)c4[nH]c(cc5nc(cc1[nH]2)C(C)=C5CC)c(C)c4C(=O)O)[C@@H](CCC(=O)O)[C@@H]3C [Ce6, Chlorin e6]
Chondrocytes [1]
  decrease in viability: approximately 50%
Chondrocytes [2]; 72 hours after drug and/or light exposure, light dose not given, read-out: IC50, inhibition of chondrocyte proliferation ([^3 H]-thymidine incorporation)
  IC50: 4.4 µg/mL (≈ 7.37 µM)
Chondrocytes [2]; concentration inhibiting [^3 H]-thymidine incorporation by 50%, read-out: IC50 (Table 2)
  IC50: 4.4 µg/mL (≈ 7.37 µM)
Articular chondrocytes; at IC50
  Photons Absorbed at IC50: 1.44 × 10^8 photons/cell
Articular chondrocytes; at the IC50 concentrations, 3 hour incubation
  relative uptake (in words): markedly less than for CASP and PF
Articular chondrocytes; uptake at the IC50, 3 hours incubation in the dark
  IC50 Uptake: 2.32 fg/cell
MMP2; at PDT parameter levels non-toxic to chondrocytes
  MMP2 production (in words): reduced at PDT parameter levels non-toxic to chondrocytes
MMP2; at high drug doses
  MMP production (in words): correspondingly greater decreases in MMP production
MMP2; at the IC50 dose
  reduction of MMP2 production: > 95%
MMP2; zymography studies
  total protein concentration (in words): did not vary with MMP values
Chondrocytes [3]
  cellular fluorescence intensity (in words): elevated levels of cytoplasmic fluorescence comparable in intensity and distribution to BPD-MA
